# Measurements as given in the NIST ThermoML archive (doi:10.1016/j.jct.2013.09.008).
# Numbers after ± are expanded uncertainties.
# Legend:
# [1] = wn = mass fraction of the nth substance listed; conditions: 101.33 kPa, Liquid; for speed of sound: Frequency=3 MHz, Linear variable-path acoustic interferometer; for mass density: Pycnometric method; for viscosity: Capillary tube (Ostwald / Ubbelohde) method
# [2] = 101.33 kPa, Liquid; for speed of sound: Frequency=3 MHz, Linear variable-path acoustic interferometer; for viscosity: Capillary tube (Ostwald / Ubbelohde) method
# [3] = mn = molality of the nth substance listed, in mol/kg; conditions: 101.33 kPa, Liquid, m2 = 0; for speed of sound: Frequency=3 MHz, Linear variable-path acoustic interferometer; for viscosity: Capillary tube (Ostwald / Ubbelohde) method
structure (smiles),measurement,setting,value
O=C[C@H](O)[C@@H](O)[C@H](O)[C@H](O)CO [D-glucose] + O,speed of sound,"[1]; 293.15 K, w1 = 0.025",1492.9 ± 2.5 m/s
same,mass density,"[1]; 293.15 K, w1 = 0.05",1016.28 ± 0.41 kg/m3
same,viscosity,"[1]; 298.15 K, w1 = 0.025",0.9202 ± 0.02 mPa·s
same,viscosity,"[1]; 298.15 K, w1 = 0.05",0.9767 ± 0.021 mPa·s
same,speed of sound,"[1]; 298.15 K, w1 = 0.05",1514.3 ± 2.5 m/s
same,mass density,"[1]; 298.15 K, w1 = 0.025",1005.91 ± 0.4 kg/m3
same,mass density,"[1]; 298.15 K, w1 = 0.05",1014.69 ± 0.42 kg/m3
same,viscosity,"[1]; 303.15 K, w1 = 0.025",0.8167 ± 0.017 mPa·s
same,viscosity,"[1]; 303.15 K, w1 = 0.05",0.8605 ± 0.018 mPa·s
same,speed of sound,"[1]; 303.15 K, w1 = 0.025",1517.4 ± 2.5 m/s
same,speed of sound,"[1]; 303.15 K, w1 = 0.05",1525.1 ± 2.5 m/s
same,mass density,"[1]; 303.15 K, w1 = 0.025",1004.61 ± 0.41 kg/m3
same,mass density,"[1]; 303.15 K, w1 = 0.05",1013.08 ± 0.43 kg/m3
same,viscosity,"[1]; 308.15 K, w1 = 0.025",0.7324 ± 0.016 mPa·s
same,viscosity,"[1]; 308.15 K, w1 = 0.05",0.7697 ± 0.016 mPa·s
same,speed of sound,"[1]; 308.15 K, w1 = 0.05",1535.7 ± 2.5 m/s
same,mass density,"[1]; 308.15 K, w1 = 0.025",1003.21 ± 0.44 kg/m3
same,mass density,"[1]; 308.15 K, w1 = 0.05",1011.47 ± 0.45 kg/m3
same,viscosity,"[1]; 313.15 K, w1 = 0.025",0.661 ± 0.014 mPa·s
same,viscosity,"[1]; 313.15 K, w1 = 0.05",0.6945 ± 0.015 mPa·s
same,speed of sound,"[1]; 313.15 K, w1 = 0.025",1536.9 ± 2.5 m/s
same,speed of sound,"[1]; 313.15 K, w1 = 0.05",1545.6 ± 2.5 m/s
same,mass density,"[1]; 313.15 K, w1 = 0.025",1001.61 ± 0.46 kg/m3
same,mass density,"[1]; 313.15 K, w1 = 0.05",1009.85 ± 0.46 kg/m3
same,viscosity,"[1]; 318.15 K, w1 = 0.025",0.6035 ± 0.013 mPa·s
same,viscosity,"[1]; 318.15 K, w1 = 0.05",0.6334 ± 0.013 mPa·s
same,speed of sound,"[1]; 318.15 K, w1 = 0.05",1554.5 ± 2.5 m/s
same,mass density,"[1]; 318.15 K, w1 = 0.025",999.76 ± 0.49 kg/m3
OC[C@H]1O[C@@](CO)(O[C@H]2O[C@H](CO)[C@@H](O)[C@H](O)[C@H]2O)[C@@H](O)[C@@H]1O [D-sucrose] + O,speed of sound,"[1]; 293.15 K, w1 = 0.025",1497.2 ± 2.5 m/s
same,speed of sound,"[1]; 293.15 K, w1 = 0.05",1501.4 ± 2.5 m/s
same,mass density,"[1]; 293.15 K, w1 = 0.025",1009.22 ± 0.42 kg/m3
same,mass density,"[1]; 293.15 K, w1 = 0.05",1018.91 ± 0.42 kg/m3
same,viscosity,"[1]; 298.15 K, w1 = 0.025",0.9618 ± 0.02 mPa·s
same,viscosity,"[1]; 298.15 K, w1 = 0.05",1.011 ± 0.021 mPa·s
same,speed of sound,"[1]; 298.15 K, w1 = 0.025",1511.2 ± 2.5 m/s
same,speed of sound,"[1]; 298.15 K, w1 = 0.05",1516.5 ± 2.5 m/s
same,mass density,"[1]; 298.15 K, w1 = 0.025",1007.51 ± 0.43 kg/m3
same,mass density,"[1]; 298.15 K, w1 = 0.05",1017.19 ± 0.43 kg/m3
same,viscosity,"[1]; 303.15 K, w1 = 0.025",0.8761 ± 0.019 mPa·s
same,viscosity,"[1]; 303.15 K, w1 = 0.05",0.9129 ± 0.019 mPa·s
same,speed of sound,"[1]; 303.15 K, w1 = 0.025",1521.5 ± 2.5 m/s
same,speed of sound,"[1]; 303.15 K, w1 = 0.05",1526.6 ± 2.5 m/s
same,mass density,"[1]; 303.15 K, w1 = 0.025",1005.76 ± 0.44 kg/m3
same,mass density,"[1]; 303.15 K, w1 = 0.05",1015.45 ± 0.45 kg/m3
same,viscosity,"[1]; 308.15 K, w1 = 0.025",0.7969 ± 0.017 mPa·s
same,viscosity,"[1]; 308.15 K, w1 = 0.05",0.8285 ± 0.018 mPa·s
same,speed of sound,"[1]; 308.15 K, w1 = 0.025",1532.1 ± 2.5 m/s
same,speed of sound,"[1]; 308.15 K, w1 = 0.05",1537.7 ± 2.5 m/s
same,mass density,"[1]; 308.15 K, w1 = 0.025",1004.05 ± 0.45 kg/m3
same,mass density,"[1]; 308.15 K, w1 = 0.05",1013.72 ± 0.46 kg/m3
same,viscosity,"[1]; 313.15 K, w1 = 0.025",0.7057 ± 0.015 mPa·s
same,viscosity,"[1]; 313.15 K, w1 = 0.05",0.7457 ± 0.016 mPa·s
same,speed of sound,"[1]; 313.15 K, w1 = 0.025",1542.5 ± 2.5 m/s
same,speed of sound,"[1]; 313.15 K, w1 = 0.05",1547.7 ± 2.5 m/s
same,mass density,"[1]; 313.15 K, w1 = 0.025",1002.31 ± 0.47 kg/m3
same,mass density,"[1]; 313.15 K, w1 = 0.05",1011.98 ± 0.47 kg/m3
same,viscosity,"[1]; 318.15 K, w1 = 0.025",0.6624 ± 0.014 mPa·s
same,viscosity,"[1]; 318.15 K, w1 = 0.05",0.6946 ± 0.015 mPa·s
same,speed of sound,"[1]; 318.15 K, w1 = 0.025",1552 ± 2.5 m/s
same,speed of sound,"[1]; 318.15 K, w1 = 0.05",1557.2 ± 2.5 m/s
same,mass density,"[1]; 318.15 K, w1 = 0.025",1000.56 ± 0.48 kg/m3
same,mass density,"[1]; 318.15 K, w1 = 0.05",1010.23 ± 0.48 kg/m3
O=C[C@H](O)[C@@H](O)[C@@H](O)CO [L-arabinose] + O,speed of sound,"[1]; 293.15 K, w1 = 0.025",1491.4 ± 2.5 m/s
same,speed of sound,"[1]; 293.15 K, w1 = 0.05",1502.3 ± 2.5 m/s
same,mass density,"[1]; 293.15 K, w1 = 0.025",1007.35 ± 0.41 kg/m3
same,mass density,"[1]; 293.15 K, w1 = 0.05",1016.09 ± 0.41 kg/m3
same,viscosity,"[1]; 298.15 K, w1 = 0.025",0.9141 ± 0.019 mPa·s
same,viscosity,"[1]; 298.15 K, w1 = 0.05",0.9695 ± 0.021 mPa·s
same,speed of sound,"[1]; 298.15 K, w1 = 0.025",1506.7 ± 2.5 m/s
same,speed of sound,"[1]; 298.15 K, w1 = 0.05",1516.9 ± 2.5 m/s
same,mass density,"[1]; 298.15 K, w1 = 0.025",1005.77 ± 0.42 kg/m3
same,mass density,"[1]; 298.15 K, w1 = 0.05",1014.44 ± 0.43 kg/m3
same,viscosity,"[1]; 303.15 K, w1 = 0.025",0.8116 ± 0.017 mPa·s
same,viscosity,"[1]; 303.15 K, w1 = 0.05",0.8573 ± 0.018 mPa·s
same,speed of sound,"[1]; 303.15 K, w1 = 0.025",1517 ± 2.5 m/s
same,speed of sound,"[1]; 303.15 K, w1 = 0.05",1526.8 ± 2.5 m/s
same,mass density,"[1]; 303.15 K, w1 = 0.025",1004.18 ± 0.43 kg/m3
same,mass density,"[1]; 303.15 K, w1 = 0.05",1012.79 ± 0.44 kg/m3
same,viscosity,"[1]; 308.15 K, w1 = 0.025",0.7304 ± 0.016 mPa·s
same,viscosity,"[1]; 308.15 K, w1 = 0.05",0.7658 ± 0.016 mPa·s
same,speed of sound,"[1]; 308.15 K, w1 = 0.025",1528.6 ± 2.5 m/s
same,speed of sound,"[1]; 308.15 K, w1 = 0.05",1537.9 ± 2.5 m/s
same,mass density,"[1]; 308.15 K, w1 = 0.025",1002.6 ± 0.44 kg/m3
same,mass density,"[1]; 308.15 K, w1 = 0.05",1011.13 ± 0.45 kg/m3
same,viscosity,"[1]; 313.15 K, w1 = 0.025",0.6591 ± 0.014 mPa·s
same,viscosity,"[1]; 313.15 K, w1 = 0.05",0.689 ± 0.015 mPa·s
same,speed of sound,"[1]; 313.15 K, w1 = 0.025",1536.8 ± 2.5 m/s
same,speed of sound,"[1]; 313.15 K, w1 = 0.05",1545.7 ± 2.5 m/s
same,mass density,"[1]; 313.15 K, w1 = 0.025",1001.01 ± 0.45 kg/m3
same,mass density,"[1]; 313.15 K, w1 = 0.05",1009.46 ± 0.46 kg/m3
same,viscosity,"[1]; 318.15 K, w1 = 0.025",0.6006 ± 0.013 mPa·s
same,viscosity,"[1]; 318.15 K, w1 = 0.05",0.6295 ± 0.013 mPa·s
same,speed of sound,"[1]; 318.15 K, w1 = 0.025",1543.1 ± 2.5 m/s
same,speed of sound,"[1]; 318.15 K, w1 = 0.05",1551.8 ± 2.5 m/s
same,mass density,"[1]; 318.15 K, w1 = 0.025",999.43 ± 0.47 kg/m3
same,mass density,"[1]; 318.15 K, w1 = 0.05",1007.8 ± 0.48 kg/m3
O [water],speed of sound,[2]; 293.15 K,1483.6 ± 2.5 m/s
same,viscosity,[2]; 298.15 K,0.8903 ± 0.019 mPa·s
same,viscosity,[2]; 303.15 K,0.7973 ± 0.017 mPa·s
same,speed of sound,[2]; 303.15 K,1508.4 ± 2.5 m/s
same,viscosity,[2]; 308.15 K,0.719 ± 0.015 mPa·s
same,viscosity,[2]; 313.15 K,0.6526 ± 0.014 mPa·s
same,speed of sound,[2]; 313.15 K,1526.8 ± 2.5 m/s
same,viscosity,[2]; 318.15 K,0.5972 ± 0.013 mPa·s
same,speed of sound,[2]; 318.15 K,1533 ± 2.5 m/s
O [water] + N[C@@H](Cc1ccccc1)C(=O)O,speed of sound,[3]; 293.15 K,1483.6 ± 2.5 m/s
same,viscosity,[3]; 298.15 K,0.8903 ± 0.019 mPa·s
same,viscosity,[3]; 303.15 K,0.7973 ± 0.017 mPa·s
same,speed of sound,[3]; 303.15 K,1508.4 ± 2.5 m/s
same,viscosity,[3]; 308.15 K,0.719 ± 0.015 mPa·s
same,mass density,"[3]; 308.15 K, Pycnometric method",994.07 ± 0.43 kg/m3
same,viscosity,[3]; 313.15 K,0.6526 ± 0.014 mPa·s
same,speed of sound,[3]; 313.15 K,1526.8 ± 2.5 m/s
same,viscosity,[3]; 318.15 K,0.5972 ± 0.013 mPa·s
same,speed of sound,[3]; 318.15 K,1533 ± 2.5 m/s
